Measured values published in publication PMC6166404 (Journal of medicinal chemistry, 2018).

What was measured:
MtbIMPDH2ΔCBS = MtbIMPDH2ΔCBS (Mycobacterium tuberculosis, UniProt P9WKI7, R252G); format: biochemical; conditions: for Ki: read-out: Ki,app MtbIMPDH2
[1] = tested on: Mtb strain SRMV2.6 (MtbIMPDH2/Y487C); format: cell-based, Mycobacterium tuberculosis
MtbIMPDH2/Y487C = MtbIMPDH2/Y487C (Mycobacterium tuberculosis, UniProt P9WKI7, Y487C); format: biochemical

## C[C@H](Oc1cccc(Cl)c1Cl)C(=O)Nc1ccc2oc(-c3cccc(OCC(=O)O)c3)nc2c1 [Compound 19b, (S)-2-(3-(5-(2-(2,3-Dichlorophenoxy)propanamido)benzo[d]oxazol-2-yl)phenoxy)acetic acid]
MtbIMPDH2ΔCBS
  fold loss in activity on translocating the alkoxy from para to meta position: 4 fold

## C[C@H](Oc1cccc(Cl)c1Cl)C(=O)Nc1ccc2oc(-c3ccc(C(N)=O)cc3)nc2c1 [Compound 28, (S)-4-(5-(2-(2,3-Dichlorophenoxy)propanamido)benzo[d]oxazol-2-yl)benzamide]
MtbIMPDH2ΔCBS
  fold increase in activity on replacing the carboxylate: 2 to 7 fold

## COc1ccc(-c2nc3cc(NC(=O)[C@H](C)Oc4cccc(Cl)c4Cl)ccc3o2)cc1 [Compound 8d, (S)-2-(2,3-Dichlorophenoxy)-N-(2-(4-methoxyphenyl)benzo[d]oxazol-5-yl)propanamide]
MtbIMPDH2ΔCBS
  fold increase in MtbIMPDH2ΔCBS inhibitory activity compared to 2: 7 fold

## (S)-2-(2,3-Dichlorophenoxy)-N-(2-(2-oxo-1,2-dihydropyridin-4-yl)benzo[d]oxazol-5-yl)propanamide [Compound 30]
MtbIMPDH2ΔCBS
  fold reduction of MtbIMPDH2ΔCBS inhibitory activity compared to 2: 3 fold
  Ki: 220 ± 6 nM

## C[C@H](Oc1cccc(Cl)c1Cl)C(=O)Nc1ccc2oc(-c3ccc(C#N)cc3)nc2c1 [Compound 8f, (S)-N-(2-(4-Cyanophenyl)benzo[d]oxazol-5-yl)-2-(2,3-dichlorophenoxy)propanamide]
MtbIMPDH2ΔCBS
  fold increase in MtbIMPDH2ΔCBS inhibitory activity compared to 2: 7 fold

## C[C@H](Oc1cccc(Cl)c1Cl)C(=O)Nc1ccc2oc(-c3ccc(C(=O)NN)cc3)nc2c1 [Compound 23, (S)-2-(2,3-Dichlorophenoxy)-N-(2-(4-(hydrazinecarbonyl)phenyl)benzo[d]oxazol-5-yl)propanamide]
MtbIMPDH2ΔCBS
  fold increase in activity on replacing the carboxylate: 2 to 7 fold

## C[C@H](Oc1cccc(Cl)c1Cl)C(=O)Nc1ccc2oc(-c3ccc(/C(N)=N\O)cc3)nc2c1 [Compound 25, (S,Z)-2-(2,3-Dichlorophenoxy)-N-(2-(4-(N’-hydroxycarbamimidoyl)phenyl)benzo[d]oxazol-5-yl)propanamide]
MtbIMPDH2ΔCBS
  fold increase in activity on replacing the carboxylate: 2 to 7 fold

## COc1ccc(Cc2nc3cc(NC(=O)[C@H](C)Oc4cccc(Cl)c4Cl)ccc3o2)cc1 [Compound 15, (S)-2-(2,3-dichlorophenoxy)-N-(2-(4-methoxybenzyl)benzo[d]oxazol-5-yl)prop-anamide]
MtbIMPDH2ΔCBS
  factor of reduced activity compared to 8d: 6

## C[C@H](Oc1cccc(Cl)c1Cl)C(=O)Nc1ccc2oc(-c3ccc(C(=O)O)cc3)nc2c1 [Compound 22, (S)-4-(5-(2-(2,3-Dichlorophenoxy)propanamido)benzo[d]oxazol-2-yl)benzoic acid]
[1]
  susceptibility of strain SRMV2.6: remained sensitive

## COc1ccc(OC(C)C(=O)Nc2ccc3oc(-c4ccncc4)nc3c2)cc1 (stereo not drawn) [Compound 1, reference compound]
[1]
  MIC SRMV2.6: >100 µM
  susceptibility of strain SRMV2.6: resistant

## CCOC(=O)COc1ccc(-c2nc3cc(NC(=O)[C@H](C)Oc4cccc(Cl)c4Cl)ccc3o2)cc1 [Compound 18a, Ethyl (S)-2-(4-(5-(2-(2,3-dichlorophenoxy)propanamido)benzo[d]oxazol-2-yl)phenoxy)acetate]
[1]
  susceptibility of strain SRMV2.6: remained sensitive

## C[C@H](Oc1cccc(Cl)c1Cl)C(=O)Nc1ccc2oc(-c3ccc(-c4n[nH]c(=O)o4)cc3)nc2c1 [Compound 24, (S)-2-(2,3-Dichlorophenoxy)-N-(2-(4-(5-oxo-4,5-dihydro-1,3,4-oxadiazol-2-yl)phenyl)benzo[d]oxazol-5-yl)propanamide]
MtbIMPDH2ΔCBS
  fold increase in activity on replacing the carboxylate: 2 to 7 fold

## C[C@H](Nc1cccc(F)c1F)C(=O)Nc1ccc2oc(-c3ccc(C#N)cc3)nc2c1 [Compound 17b, (S)-N-(2-(4-Cyanophenyl)benzo[d]oxazol-5-yl)-2-((2,3-difluorophenyl)amino)propanamide]
MtbIMPDH2/Y487C
  Ratio Ki,app (Y487C) /Ki,app (WT): 60
[1]
  MIC SRMV2.6: >100 µM
  susceptibility of strain SRMV2.6: resistant

## CCOC(=O)COc1cccc(-c2nc3cc(NC(=O)[C@H](C)Oc4cccc(Cl)c4Cl)ccc3o2)c1 [Compound 18b, Ethyl(S)-2-(3-(5-(2-(2,3-dichlorophenoxy)propanamido)benzo[d]oxazol-2-yl)phenoxy)acetate]
MtbIMPDH2ΔCBS
  fold loss in activity on translocating the alkoxy from para to meta position: 4 fold

## (S)-2-(2,3-Dichlorophenoxy)-N-(2-(2-methoxypyridin-4-yl)benzo[d]oxazol-5-yl)propanamide [Compound 8b]
MtbIMPDH2ΔCBS
  fold increase in MtbIMPDH2ΔCBS inhibitory activity compared to 2: 5 fold
  Ki: 12 ± 0.1 nM

## C[C@H](Oc1cccc(Cl)c1Cl)C(=O)Nc1ccc2oc(-c3ccc(OC(F)(F)F)cc3)nc2c1 [Compound 8e, (S)-2-(2,3-Dichlorophenoxy)-N-(2-(4-(trifluoromethoxy)phenyl)benzo[d]oxazol-5-yl)propanamide]
MtbIMPDH2ΔCBS
  fold increase in MtbIMPDH2ΔCBS inhibitory activity compared to 2: 7 fold

## COc1ccc(-c2nc3cc(NC(=O)[C@H](C)Oc4cccc(Cl)c4Cl)ccc3o2)cn1 [Compound 8c, (S)-2-(2,3-dichlorophenoxy)-N-(2-(6-methoxypyridin-3-yl)benzo[d]oxazol-5-yl)propanamide]
MtbIMPDH2ΔCBS
  fold increase in MtbIMPDH2ΔCBS inhibitory activity compared to 2: 5 fold

## C[C@H](Oc1cccc(Cl)c1Cl)C(=O)Nc1ccc2oc(-c3ccc(O)cc3)nc2c1 [Compound 8i, (S)-2-(2,3-Dichlorophenoxy)-N-(2-(4-hydroxyphenyl)benzo[d]oxazol-5-yl)propanamide]
MtbIMPDH2ΔCBS
  fold increase in MtbIMPDH2ΔCBS inhibitory activity compared to 2: 2 fold

## C[C@H](Oc1cccc(Cl)c1Cl)C(=O)Nc1ccc2oc(-c3ccc(-c4noc(=O)[nH]4)cc3)nc2c1 [Compound 26, (S)-2-(2,3-Dichlorophenoxy)-N-(2-(4-(5-oxo-4,5-dihydro-1,2,4-oxadiazol-3-yl)phenyl)benzo-[d]oxazol-5-yl)propanamide]
MtbIMPDH2ΔCBS
  fold increase in activity on replacing the carboxylate: 2 to 7 fold
